From patent publication US12077503B2, “Substituted cyclic amides and their use as herbicides” (FMC CORPORATION, priority 2015, dated 2024) come the findings set out here.

What all share (format): in vivo
In assay [1] the test system is barnyardgrass (Echinochloa crus-galli). Description: Test B flooded paddy test. The settings on record: Echinochloa crus-galli, Flood, 250 g ai/ha; scale of 0 to 100 where 0 is no effect and 100 is complete control; read-out: Barnyardgrass plant response rating. Summed up: (§1)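 Flooding to 3 cm over soil accompanied treatment, which consisted of adding compound to the standing water around 2-leaf plants; depth was then maintained. Visual assessment versus controls followed at 13 to 15 d (scale 0–100, 0 meaning no effect).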

A further assay deals with rice (Oryra sativa). Description: Test B flooded paddy test. The settings on record: Oryza sativa, Flood, 250 g ai/ha; scale of 0 to 100 where 0 is no effect and 100 is complete control; read-out: Rice plant response rating. The method, boiled down:
as §1

Assay [2] has as its system ducksalad (Heteranthera limosa). Description: Test B flooded paddy test. The settings on record: Heteranthera limosa, Flood, 250 g ai/ha; scale of 0 to 100 where 0 is no effect and 100 is complete control; read-out: Ducksalad plant response rating. The method, boiled down:
as §1

The test system of assay [3] is sedge, umbrella (small-flower umbrella sedge, Cyperus difformis). Description: Test B flooded paddy test. The settings on record: Cyperus difformis, Flood, 250 g ai/ha; scale of 0 to 100 where 0 is no effect and 100 is complete control; read-out: Sedge, Umbrella plant response rating. Summed up: as §1
Assay [4] relates to ragweed (common ragweed, Ambrosia elatior). Description: Test A postemergence. The settings on record: Ambrosia artemisiifolia, post-emergence, 240 h, 125 g ai/ha, Postemergence; visual injury after approximately 10 d; 0 to 100 scale where 0 is no effect and 100 is complete control; read-out: Plant response rating, Ragweed. Summed up:
(§2)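 Seeded soil received test chemicals as a preemergence directed spray, and seedlings at one to two leaves, 2–10 cm tall, received them postemergence, in a non-phytotoxic, surfactant-containing solvent mixture. Pots were held in a greenhouse for approximately 10 d, then rated for injury from 0, no effect, to 100, complete control.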

Another assay has as its system Kochia (Kochia scoparia). Description: Test A postemergence. The settings on record: Bassia scoparia, post-emergence, 240 h, 125 g ai/ha, Postemergence; visual injury after approximately 10 d; 0 to 100 scale where 0 is no effect and 100 is complete control; read-out: Plant response rating, Kochia. Summed up:
as §2

The subject of assay [5] is barnyardgrass (Echinochloa crus-galli). Description: Test A postemergence. The settings on record: Echinochloa crus-galli, post-emergence, 240 h, 125 g ai/ha, Postemergence; visual injury after approximately 10 d; 0 to 100 scale where 0 is no effect and 100 is complete control; read-out: Plant response rating, Barnyardgrass. The method, boiled down:
as §2

In assay [6] the test system is Galium (catchweed bedstraw, Galium aparine). Description: Test A postemergence. The settings on record: Galium, post-emergence, 240 h, 125 g ai/ha, Postemergence; visual injury after approximately 10 d; 0 to 100 scale where 0 is no effect and 100 is complete control; read-out: Plant response rating, Galium. The method, boiled down:
as §2

The test system of assay [7] is pigweed (Amaranthus retroflexus). Description: Test A postemergence. The settings on record: Amaranthus retroflexus, post-emergence, 240 h, 125 g ai/ha, Postemergence; visual injury after approximately 10 d; 0 to 100 scale where 0 is no effect and 100 is complete control; read-out: Plant response rating, Pigweed. The method, boiled down:
as §2

The subject of a further assay is corn (Zea mays). Description: Test A postemergence. The settings on record: Zea mays, post-emergence, 240 h, 125 g ai/ha, Postemergence; visual injury after approximately 10 d; 0 to 100 scale where 0 is no effect and 100 is complete control. Summed up:
as §2

The subject of assay [8] is blackgrass (Alopecurus myosuroides). Description: Test A postemergence. The settings on record: Alopecurus myosuroides, post-emergence, 240 h, 125 g ai/ha, Postemergence; visual injury after approximately 10 d; 0 to 100 scale where 0 is no effect and 100 is complete control; read-out: Plant response rating, Blackgrass. Summed up:
as §2

For assay [9], the system named is ryegrass, Italian (Italian ryegrass, Lolium multiflorum). Description: Test A postemergence. The settings on record: Lolium multiflorum, post-emergence, 240 h, 125 g ai/ha, Postemergence; visual injury after approximately 10 d; 0 to 100 scale where 0 is no effect and 100 is complete control; read-out: Plant response rating, Ryegrass, Italian. Summed up:
as §2

Assay [10] relates to giant foxtail (Setaria faberii). Description: Test A postemergence. The settings on record: Setaria faberi, post-emergence, 240 h, 125 g ai/ha, Postemergence; visual injury after approximately 10 d; 0 to 100 scale where 0 is no effect and 100 is complete control; read-out: Plant response rating, Foxtail, Giant. The method, boiled down: as §2
In assay [11] the test system is wheat (Triticum aestivum). Description: Test A postemergence. The settings on record: Triticum aestivum, post-emergence, 240 h, 125 g ai/ha, Postemergence; visual injury after approximately 10 d; 0 to 100 scale where 0 is no effect and 100 is complete control; read-out: Plant response rating, Wheat. Summed up: as §2
Assay [12] relates to giant foxtail (Setaria faberii). Description: Test A preemergence. The settings on record: Setaria faberi, pre-emergence, 240 h, preemergence, read-out: Foxtail, Giant plant response rating; for pest or weed control at 125 g/ha: 125 g ai/ha, 0 to 100 scale where 0 is no effect and 100 is complete control; for pest or weed control at 500 g/ha: 500 g ai/ha, visual injury rating about 10 d after treatment, 0 to 100 scale (0 no effect, 100 complete control). Summed up: as §2

Turning to `Cc1cc([C@H]2CN(C)C(=O)[C@@H]2C(=O)Nc2ccc(F)cc2F)ccc1Cl` [Compound 930], the pest or weed control at 250 g/ha is 50% in [1], 0% in the assay with rice (Oryra sativa), 80% in assay [2] and 0% in assay [3]. The pest or weed control at 125 g/ha is 0% in [4]; 20% in the assay on Kochia (Kochia scoparia); 80% in [5]; 40% in [6]; 30% in assay [7]; 20% in assay [8]. Further, the pest or weed control at 125 g/ha was found to be 30% in assay [9], 80% in assay [10] and 90% in assay [12]. In the assay on corn (Zea mays), this molecule yielded a Corn plant response rating (crop injury, 0 = no effect, 100 = complete kill) at 125 g/ha of 40%. For the same molecule, the plant injury at 125 g/ha in assay [11] amounted to 30%. In assay [12], the pest or weed control at 500 g/ha came out at 90%.

In the case of `CN1C[C@H](c2ccc(C(F)(F)F)cc2)[C@@H](C(=O)Nc2ccc(F)cc2Br)C1=O` [Compound 934], the pest or weed control at 250 g/ha in assay [1] was 0%; in the assay with rice (Oryra sativa), 0%; in [2], 60%; in [3], 0%. For the same molecule, the pest or weed control at 125 g/ha is 0% in [4]; 20% in the assay with Kochia (Kochia scoparia); 60% in assay [5]; 60% in assay [6]; 20% in [7]; 0% in assay [8]. Besides, the pest or weed control at 125 g/ha in [9] worked out at 0%; in assay [10], 90%; in assay [12] it was 90%. Also, in the assay on corn (Zea mays), the Corn plant response rating (crop injury, 0 = no effect, 100 = complete kill) at 125 g/ha came to 20%. For the same molecule, in [11], the plant injury at 125 g/ha worked out at 0%. Further, in assay [12], the pest or weed control at 500 g/ha was 90%.
